Columns and labels:
[1] = molecular target: T1, GABA-A receptor; anion channel (Rattus norvegicus) (UniProt O09028+P15431+P18506+P18508+P19969+P20236+P23574+P23576+P28471+P28473+P30191+P62813+P63079+P63138+Q91ZM7+Q9ES14); conditions: Compound concentration 10.0 uM
[2] = molecular target: D(1B) dopamine receptor (Homo sapiens) (UniProt P21918); conditions: Compound concentration 10.0 uM
[3] = molecular target: Sigma intracellular receptor 2 (Homo sapiens) (UniProt Q5BJF2); conditions: Compound concentration 10.0 uM
[4] = molecular target: Adenosine receptor A3 (Homo sapiens) (UniProt P0DMS8); conditions: Compound concentration 10.0 uM
[5] = molecular target: Alpha-2C adrenergic receptor (Homo sapiens) (UniProt P18825); conditions: Compound concentration 10.0 uM
[6] = molecular target: B2 bradykinin receptor (Homo sapiens) (UniProt P30411); conditions: Compound concentration 10.0 uM
[7] = molecular target: Delta-type opioid receptor (Homo sapiens) (UniProt P41143); conditions: Compound concentration 10.0 uM
[8] = molecular target: Vasopressin V1a receptor (Homo sapiens) (UniProt P37288); conditions: Compound concentration 10.0 uM
[9] = molecular target: Muscarinic acetylcholine receptor M5 (Homo sapiens) (UniProt P08912); conditions: Compound concentration 10.0 uM
[10] = molecular target: Adenosine receptor A1 (Homo sapiens) (UniProt P30542); conditions: Compound concentration 10.0 uM
[11] = molecular target: Muscarinic acetylcholine receptor M3 (Homo sapiens) (UniProt P20309); conditions: Compound concentration 10.0 uM
[12] = molecular target: Histamine H3 receptor (Homo sapiens) (UniProt Q9Y5N1); conditions: Compound concentration 10.0 uM
[13] = molecular target: Histamine H2 receptor (Homo sapiens) (UniProt P25021); conditions: Compound concentration 10.0 uM
[14] = molecular target: Beta-2 adrenergic receptor (Homo sapiens) (UniProt P07550); conditions: Compound concentration 10.0 uM
[15] = molecular target: Aspartate aminotransferase, mitochondrial (Homo sapiens, UniProt P00505); experiment: Aspartate transaminase assay (GOT2)
[16] = molecular target: Sodium-dependent noradrenaline transporter (Homo sapiens) (UniProt P23975); conditions: Compound concentration 10.0 uM
[17] = molecular target: B1 bradykinin receptor (Homo sapiens) (UniProt P46663); conditions: Compound concentration 10.0 uM
[18] = molecular target: Endothelin receptor type B (Homo sapiens) (UniProt P24530); conditions: Compound concentration 10.0 uM
[19] = molecular target: Purinergic P2Y (Rattus norvegicus) (UniProt O35811+Q9EPX4+P49651+Q63371+P41232+O35881+Q6GUG4); conditions: Compound concentration 10.0 uM
[20] = molecular target: 5-hydroxytryptamine receptor 2B (Homo sapiens) (UniProt P41595); conditions: Compound concentration 10.0 uM
[21] = molecular target: Histamine H1 receptor (Homo sapiens) (UniProt P35367); conditions: Compound concentration 10.0 uM
[22] = molecular target: 5-hydroxytryptamine receptor 2B (Homo sapiens) (UniProt P41595); conditions: Compound concentration 10.0 uM; remark: listed apart in the source
[23] = molecular target: Equilibrative nucleoside transporter 1/2/3/4 (Homo sapiens) (UniProt Q99808+Q7RTT9+Q14542+Q9BZD2); conditions: Compound concentration 10.0 uM
[24] = organism: Rattus norvegicus; conditions: Compound concentration 10.0 uM
[25] = molecular target: Alpha-1A adrenergic receptor (Homo sapiens) (UniProt P35348); conditions: Rattus norvegicus; Compound concentration 10.0 uM
[26] = molecular target: 5-hydroxytryptamine receptor 2A (Homo sapiens) (UniProt P28223); conditions: Compound concentration 10.0 uM
[27] = molecular target: Alpha-1A adrenergic receptor (Homo sapiens) (UniProt P35348); conditions: Compound concentration 10.0 uM
[28] = molecular target: Kappa-type opioid receptor (Homo sapiens) (UniProt P41145); conditions: Compound concentration 10.0 uM
[29] = molecular target: Delta-type opioid receptor (Homo sapiens) (UniProt P41143); conditions: Compound concentration 10.0 uM; remark: listed apart in the source
[30] = molecular target: Type-2 angiotensin II receptor (Homo sapiens) (UniProt P50052); conditions: Compound concentration 10.0 uM
[31] = molecular target: Muscarinic acetylcholine receptor M2 (Homo sapiens) (UniProt P08172); conditions: Compound concentration 10.0 uM
[32] = molecular target: Glutamate NMDA receptor (Rattus norvegicus) (UniProt P35439+Q00959+Q00960+Q00961+Q62645+Q8VHN2+Q9R1M7); conditions: Compound concentration 10.0 uM
[33] = molecular target: Kappa-type opioid receptor (Homo sapiens) (UniProt P41145); conditions: Compound concentration 10.0 uM; remark: listed apart in the source
[34] = molecular target: Insulin receptor (Homo sapiens) (UniProt P06213); conditions: Rattus norvegicus; Compound concentration 10.0 uM
[35] = molecular target: Glutamate receptor ionotropic, kainate (Rattus norvegicus) (UniProt P22756+Q01812+P42260+P42264+Q63273); conditions: Compound concentration 10.0 uM
[36] = molecular target: Sodium-dependent dopamine transporter (Homo sapiens) (UniProt Q01959); conditions: Compound concentration 10.0 uM
[37] = molecular target: T1, GABA-A receptor; anion channel (Rattus norvegicus); conditions: Compound concentration 10.0 uM; remark: listed apart in the source
[38] = molecular target: 5-hydroxytryptamine receptor 6 (Homo sapiens) (UniProt P50406); conditions: Compound concentration 10.0 uM
[39] = organism: Homo sapiens; conditions: Compound concentration 10.0 uM
[40] = organism: Oryctolagus cuniculus; conditions: Compound concentration 10.0 uM
[41] = molecular target: Muscarinic acetylcholine receptor M4 (Homo sapiens) (UniProt P08173); conditions: Compound concentration 10.0 uM
[42] = molecular target: Motilin receptor (Homo sapiens) (UniProt O43193); conditions: Compound concentration 10.0 uM
[43] = molecular target: Alpha-2B adrenergic receptor (Homo sapiens) (UniProt P18089); conditions: Compound concentration 10.0 uM
[44] = molecular target: Glutamate receptor 2 (Homo sapiens) (UniProt P42262); conditions: Rattus norvegicus; Compound concentration 10.0 uM

Alpha-1A adrenergic receptor (Homo sapiens), sequence (P35348 whole entry): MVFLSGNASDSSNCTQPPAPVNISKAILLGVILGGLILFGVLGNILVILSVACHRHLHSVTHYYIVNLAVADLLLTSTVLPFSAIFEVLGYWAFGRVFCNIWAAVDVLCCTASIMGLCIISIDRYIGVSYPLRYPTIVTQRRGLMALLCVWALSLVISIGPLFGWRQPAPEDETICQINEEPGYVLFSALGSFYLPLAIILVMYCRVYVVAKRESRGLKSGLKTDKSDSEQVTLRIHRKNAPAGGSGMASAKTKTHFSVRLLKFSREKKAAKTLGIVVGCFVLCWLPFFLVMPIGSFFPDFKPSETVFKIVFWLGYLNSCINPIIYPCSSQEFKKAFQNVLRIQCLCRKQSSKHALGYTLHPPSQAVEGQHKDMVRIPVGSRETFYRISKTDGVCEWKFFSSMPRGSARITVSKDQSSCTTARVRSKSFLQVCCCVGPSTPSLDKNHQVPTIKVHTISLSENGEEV
Delta-type opioid receptor (Homo sapiens), sequence (P41143 whole entry): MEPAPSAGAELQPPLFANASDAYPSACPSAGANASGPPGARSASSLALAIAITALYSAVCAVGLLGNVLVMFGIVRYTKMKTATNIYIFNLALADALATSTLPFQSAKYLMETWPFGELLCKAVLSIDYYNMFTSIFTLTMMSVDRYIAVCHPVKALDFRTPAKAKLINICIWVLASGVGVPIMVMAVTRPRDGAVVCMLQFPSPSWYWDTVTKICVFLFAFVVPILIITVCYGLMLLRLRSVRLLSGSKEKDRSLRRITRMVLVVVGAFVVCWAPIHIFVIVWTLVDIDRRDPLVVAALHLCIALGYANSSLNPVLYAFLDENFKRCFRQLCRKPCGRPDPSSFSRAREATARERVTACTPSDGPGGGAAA
5-hydroxytryptamine receptor 2B (Homo sapiens), sequence (P41595 whole entry): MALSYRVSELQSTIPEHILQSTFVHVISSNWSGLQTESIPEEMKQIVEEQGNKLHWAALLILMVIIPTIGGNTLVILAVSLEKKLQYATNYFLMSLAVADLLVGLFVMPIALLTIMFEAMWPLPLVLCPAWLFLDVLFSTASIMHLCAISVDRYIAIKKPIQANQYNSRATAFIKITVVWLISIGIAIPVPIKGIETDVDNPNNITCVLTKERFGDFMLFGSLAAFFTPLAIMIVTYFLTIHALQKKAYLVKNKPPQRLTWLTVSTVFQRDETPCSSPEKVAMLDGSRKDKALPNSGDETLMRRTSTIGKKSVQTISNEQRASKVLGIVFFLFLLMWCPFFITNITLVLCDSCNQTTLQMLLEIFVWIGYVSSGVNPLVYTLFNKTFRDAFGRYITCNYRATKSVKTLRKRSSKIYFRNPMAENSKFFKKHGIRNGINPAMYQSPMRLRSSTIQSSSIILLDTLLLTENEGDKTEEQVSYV
Kappa-type opioid receptor (Homo sapiens), sequence (P41145 whole entry): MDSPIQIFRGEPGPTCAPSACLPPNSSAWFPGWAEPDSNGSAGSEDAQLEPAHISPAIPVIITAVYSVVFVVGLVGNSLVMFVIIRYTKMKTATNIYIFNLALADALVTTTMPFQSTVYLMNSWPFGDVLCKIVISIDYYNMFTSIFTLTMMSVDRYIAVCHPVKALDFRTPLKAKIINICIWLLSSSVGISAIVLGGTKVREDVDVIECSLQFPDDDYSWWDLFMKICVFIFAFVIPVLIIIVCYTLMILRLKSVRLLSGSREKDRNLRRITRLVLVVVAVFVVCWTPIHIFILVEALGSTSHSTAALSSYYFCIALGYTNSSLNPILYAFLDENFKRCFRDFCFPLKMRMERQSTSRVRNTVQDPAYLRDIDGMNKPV
Muscarinic acetylcholine receptor M5 (Homo sapiens), sequence (P08912 whole entry): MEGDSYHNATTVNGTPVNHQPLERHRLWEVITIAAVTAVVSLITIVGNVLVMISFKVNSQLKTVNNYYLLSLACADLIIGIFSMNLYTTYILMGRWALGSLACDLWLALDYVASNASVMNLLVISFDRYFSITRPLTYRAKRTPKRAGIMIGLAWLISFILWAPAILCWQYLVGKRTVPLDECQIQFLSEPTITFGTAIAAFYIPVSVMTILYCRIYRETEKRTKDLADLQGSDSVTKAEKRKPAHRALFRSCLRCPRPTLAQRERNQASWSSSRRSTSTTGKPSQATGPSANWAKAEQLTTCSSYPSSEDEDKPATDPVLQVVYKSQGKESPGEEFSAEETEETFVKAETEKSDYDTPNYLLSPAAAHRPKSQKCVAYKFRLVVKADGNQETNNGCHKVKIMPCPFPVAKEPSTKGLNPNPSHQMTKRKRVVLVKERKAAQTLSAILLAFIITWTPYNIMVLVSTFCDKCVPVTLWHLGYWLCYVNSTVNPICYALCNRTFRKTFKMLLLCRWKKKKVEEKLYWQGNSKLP
Motilin receptor (Homo sapiens), sequence (O43193 whole entry): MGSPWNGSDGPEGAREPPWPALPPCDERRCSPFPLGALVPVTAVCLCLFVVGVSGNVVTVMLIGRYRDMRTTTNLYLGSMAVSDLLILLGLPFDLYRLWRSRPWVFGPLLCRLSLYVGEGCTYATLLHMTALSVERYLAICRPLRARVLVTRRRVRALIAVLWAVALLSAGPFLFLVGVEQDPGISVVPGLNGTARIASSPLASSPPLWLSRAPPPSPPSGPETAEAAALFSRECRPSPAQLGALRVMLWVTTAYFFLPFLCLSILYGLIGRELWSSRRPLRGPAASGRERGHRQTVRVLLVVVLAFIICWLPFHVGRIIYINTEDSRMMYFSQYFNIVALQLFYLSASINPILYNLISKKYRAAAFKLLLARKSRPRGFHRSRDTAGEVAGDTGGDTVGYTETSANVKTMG
Alpha-2C adrenergic receptor (Homo sapiens), sequence (P18825 whole entry): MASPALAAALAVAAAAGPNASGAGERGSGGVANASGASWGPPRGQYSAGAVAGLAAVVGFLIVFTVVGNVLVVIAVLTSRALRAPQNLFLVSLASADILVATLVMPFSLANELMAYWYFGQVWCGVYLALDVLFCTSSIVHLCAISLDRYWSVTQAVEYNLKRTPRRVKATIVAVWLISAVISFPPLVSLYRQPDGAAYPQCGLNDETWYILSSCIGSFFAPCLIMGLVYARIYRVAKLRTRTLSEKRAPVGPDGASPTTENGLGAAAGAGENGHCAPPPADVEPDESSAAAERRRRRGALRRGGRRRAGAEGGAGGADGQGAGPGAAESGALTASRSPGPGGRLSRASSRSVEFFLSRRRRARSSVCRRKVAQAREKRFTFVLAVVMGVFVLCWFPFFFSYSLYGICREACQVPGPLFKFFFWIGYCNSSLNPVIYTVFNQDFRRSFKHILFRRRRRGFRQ
Adenosine receptor A3 (Homo sapiens), sequence (P0DMS8 whole entry): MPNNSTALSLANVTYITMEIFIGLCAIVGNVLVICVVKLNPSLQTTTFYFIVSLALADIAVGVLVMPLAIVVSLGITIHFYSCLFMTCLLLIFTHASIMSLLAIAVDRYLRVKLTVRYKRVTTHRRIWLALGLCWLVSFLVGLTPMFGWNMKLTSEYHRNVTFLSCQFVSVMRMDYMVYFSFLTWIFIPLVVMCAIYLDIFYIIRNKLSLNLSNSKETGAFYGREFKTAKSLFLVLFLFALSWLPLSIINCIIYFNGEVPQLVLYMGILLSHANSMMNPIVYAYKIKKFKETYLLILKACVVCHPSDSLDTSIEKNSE
Aspartate aminotransferase, mitochondrial, sequence (P00505 whole entry): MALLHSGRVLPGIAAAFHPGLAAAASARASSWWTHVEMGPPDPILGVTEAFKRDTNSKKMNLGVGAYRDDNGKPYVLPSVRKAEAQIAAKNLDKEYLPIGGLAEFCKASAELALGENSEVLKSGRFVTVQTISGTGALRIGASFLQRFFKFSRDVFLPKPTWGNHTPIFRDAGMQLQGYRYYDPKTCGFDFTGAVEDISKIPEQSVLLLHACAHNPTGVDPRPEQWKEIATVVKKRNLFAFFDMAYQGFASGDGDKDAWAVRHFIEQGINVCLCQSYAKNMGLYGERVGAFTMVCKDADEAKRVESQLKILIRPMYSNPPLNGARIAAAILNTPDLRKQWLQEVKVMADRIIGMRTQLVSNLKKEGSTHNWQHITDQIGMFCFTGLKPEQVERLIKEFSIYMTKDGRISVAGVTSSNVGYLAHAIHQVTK
Type-2 angiotensin II receptor (Homo sapiens), sequence (P50052 whole entry): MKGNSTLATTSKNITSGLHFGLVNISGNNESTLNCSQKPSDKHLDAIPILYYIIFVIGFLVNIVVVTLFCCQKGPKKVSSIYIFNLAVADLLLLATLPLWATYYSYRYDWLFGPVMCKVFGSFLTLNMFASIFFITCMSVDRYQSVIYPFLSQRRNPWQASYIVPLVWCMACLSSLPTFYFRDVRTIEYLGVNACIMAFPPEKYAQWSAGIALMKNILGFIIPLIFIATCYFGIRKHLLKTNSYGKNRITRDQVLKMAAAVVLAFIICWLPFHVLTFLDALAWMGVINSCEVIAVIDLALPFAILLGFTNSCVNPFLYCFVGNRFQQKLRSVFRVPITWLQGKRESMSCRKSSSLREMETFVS
Vasopressin V1a receptor (Homo sapiens), sequence (P37288 whole entry, looked up): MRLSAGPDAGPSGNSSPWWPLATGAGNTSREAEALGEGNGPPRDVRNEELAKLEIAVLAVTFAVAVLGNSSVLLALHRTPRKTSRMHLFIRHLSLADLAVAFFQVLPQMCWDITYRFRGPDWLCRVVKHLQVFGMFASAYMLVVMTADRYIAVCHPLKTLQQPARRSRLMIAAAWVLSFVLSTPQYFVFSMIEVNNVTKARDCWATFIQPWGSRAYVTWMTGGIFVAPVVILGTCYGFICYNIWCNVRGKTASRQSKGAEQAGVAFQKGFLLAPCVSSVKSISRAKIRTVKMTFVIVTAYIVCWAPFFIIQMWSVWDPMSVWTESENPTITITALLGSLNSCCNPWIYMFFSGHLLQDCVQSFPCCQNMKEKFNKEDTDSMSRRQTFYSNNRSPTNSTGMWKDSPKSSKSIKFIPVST
Sigma intracellular receptor 2 (Homo sapiens), sequence (Q5BJF2 whole entry): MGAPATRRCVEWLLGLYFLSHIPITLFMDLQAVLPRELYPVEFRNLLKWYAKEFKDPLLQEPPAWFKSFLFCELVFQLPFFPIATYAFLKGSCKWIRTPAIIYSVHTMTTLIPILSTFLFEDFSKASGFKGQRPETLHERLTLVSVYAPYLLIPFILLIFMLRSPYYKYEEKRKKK

For `Cc1ccccc1Oc1cc(-n2c(=O)cc(C(F)(F)F)[nH]c2=O)c2ccccc2c1Cl` [BAY-069], the inhibition [1] was 16.3%, the inhibition [2] was 18.7% and the inhibition [3] was -7.5%. The inhibition [4] was -2%, the inhibition [5] was 10.8% and the inhibition [6] was 1%. It also gave an inhibition [7] of -3%, an inhibition [8] of 7% and an inhibition [9] of -5.66%. For the same compound, the inhibition [10] was 27%, the inhibition [11] was -7% and the inhibition [12] was 3%. For the same compound, the inhibition [13] was -2%, the inhibition [14] was 11.2% and the IC50 [15] was > 50 µM (not active). It also gave an inhibition [16] of -1.01%, an inhibition [17] of -8% and an inhibition [18] of -9%. It also gave an inhibition [19] of -4%, an inhibition [20] of 1% and an inhibition [21] of -2%. The inhibition [22] was -0.49%, the inhibition [23] was 28% and the inhibition [24] was 63.9%. The inhibition [25] was 5%, the inhibition [26] was -2.88% and the inhibition [27] was -2.81%. The inhibition [28] was 37.5%, the inhibition [29] was 14.5% and the inhibition [30] was 6%. The inhibition [31] was 39.2%, the inhibition [32] was 11% and the inhibition [33] was -7%. For the same compound, the inhibition [34] was 15%, the inhibition [35] was -4% and the inhibition [36] was 33%. For the same compound, the inhibition [37] was 11.3%, the inhibition [38] was 13% and the inhibition [39] was -8%. It also gave an inhibition [40] of 11%, an inhibition [41] of -5% and an inhibition [42] of 4%. It also gave an inhibition [43] of -2% and an inhibition [44] of 11%.

From ChEMBL document CHEMBL4507325 (2021)
